Measured values taken from patent US9365621B2, “Method for preventing neoplastic transformation by inhibition of retinoblastoma protein inactivation” (The Regents of the University of California, priority 2012, dated 2016).
No end group written: not given here.

Molecular target: T1, human Rb construct (residues 53-787) binding Human E2F1 transactivation domain (Homo sapiens, UniProt P06400, DEL245-267/DEL582-642/S780A)
T1 construct: a human Rb construct (residues 53-787, delta245-267, delta582-642, S780A); made in house; host or cells: E. coli
T1 sequence (P06400 with tags, fused parts or gaps DEL245-267/DEL582-642/S780A): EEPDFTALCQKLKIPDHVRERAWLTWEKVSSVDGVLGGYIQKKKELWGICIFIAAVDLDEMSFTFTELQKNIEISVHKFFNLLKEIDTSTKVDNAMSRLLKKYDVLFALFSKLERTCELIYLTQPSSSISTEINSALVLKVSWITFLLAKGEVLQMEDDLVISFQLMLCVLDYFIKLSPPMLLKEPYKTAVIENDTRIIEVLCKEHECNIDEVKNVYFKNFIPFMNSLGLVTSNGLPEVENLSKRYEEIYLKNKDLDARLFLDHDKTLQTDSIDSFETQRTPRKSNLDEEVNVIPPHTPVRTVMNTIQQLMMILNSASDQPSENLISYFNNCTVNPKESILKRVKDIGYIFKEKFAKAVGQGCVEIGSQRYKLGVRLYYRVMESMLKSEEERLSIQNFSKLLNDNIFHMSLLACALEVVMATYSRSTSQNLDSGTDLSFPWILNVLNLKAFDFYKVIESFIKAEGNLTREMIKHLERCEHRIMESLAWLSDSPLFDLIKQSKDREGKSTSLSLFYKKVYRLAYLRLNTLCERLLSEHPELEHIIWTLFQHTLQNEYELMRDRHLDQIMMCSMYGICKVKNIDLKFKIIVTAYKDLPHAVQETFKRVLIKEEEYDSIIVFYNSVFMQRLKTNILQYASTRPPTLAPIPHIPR
Assay: Isothermal titration calorimetry of E2F binding to Rb (Rb activity)
Conditions: in vitro, phosphorylated Rb
Description: The inventors have developed an assay for measuring the degree of binding between Rb and E2F. Rb inactivation corresponds to E2F binding inhibition. If you can prevent E2F binding to Rb, then you inactivate Rb, its tumor suppressing action decreases and the cell cycle continues from G1 to S and unregulated cell division occurs. Inactivation occurs upon Rb phosphorylation by Cdk. The inventors have discovered that in the presence of ‘LxCxE’ peptide, E2F inhibition is prevented upon phosphorylation.
The […] peptide was made synthetically using standard peptide synthesis. Human E2F1 transactivation domain (residues […]) and a human Rb construct (residues 53-787, delta245-267, delta582-642, S780A) were produced recombinantly in E. coli and purified to homogeneity. Rb was phosphorylated with recombinant Cdk as described.
Rb activity, defined as its ability to bind E2F, was assayed by isothermal titration calorimetry to measure quantitatively E2F binding affinity. About 50 micromolar (μm) Rb was used in the calorimetry cell and E2F was titrated in at a concentration of ˜1 mM. Standard protocols were used to determine Kd. In the experiment with the […] peptide, the peptide was first added to the cell before E2F to saturate Rb.

“DLYCYEQLN [DLYCYEQLN peptide, DLYCYEQLN]” was tested, and the “inhibition of Rb inactivation (effect of phosphorylation on E2F-Rb binding)” value was “inhibits the weakening effect of phosphorylation on E2F-Rb binding”.
